Each structure is given as a SMILES string.

For the experiment, the target named is T1, Parathyroid hormone/parathyroid hormone-related peptide receptor (Homo sapiens, UniProt Q03431).
T1 sequence (Q03431 whole entry): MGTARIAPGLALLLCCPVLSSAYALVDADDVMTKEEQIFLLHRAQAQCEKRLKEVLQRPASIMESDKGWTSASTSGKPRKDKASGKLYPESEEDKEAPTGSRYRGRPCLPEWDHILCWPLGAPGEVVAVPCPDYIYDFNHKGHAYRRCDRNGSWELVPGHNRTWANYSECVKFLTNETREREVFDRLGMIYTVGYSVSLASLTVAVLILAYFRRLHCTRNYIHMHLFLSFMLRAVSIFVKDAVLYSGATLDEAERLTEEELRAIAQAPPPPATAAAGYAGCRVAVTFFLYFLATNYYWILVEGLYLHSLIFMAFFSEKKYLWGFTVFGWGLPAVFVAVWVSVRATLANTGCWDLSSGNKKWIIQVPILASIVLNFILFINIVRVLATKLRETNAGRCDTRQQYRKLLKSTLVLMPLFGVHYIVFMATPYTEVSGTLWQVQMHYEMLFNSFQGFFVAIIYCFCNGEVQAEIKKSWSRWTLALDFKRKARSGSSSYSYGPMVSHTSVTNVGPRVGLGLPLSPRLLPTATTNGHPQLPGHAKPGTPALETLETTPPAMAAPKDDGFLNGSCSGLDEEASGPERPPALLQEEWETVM
The experiment is described as follows: Agonist activity at human PTH1 receptor expressed in human GP2.3 cells assessed as induction of cAMP after 12 to 20 mins by luciferase reporter gene assay. For orientation: A reporter such as luciferase makes a cellular process visible.

Turning to `CC[C@H](C)[C@H](NC(=O)[C@H](CC(C)C)NC(=O)[C@H]1CNC[C@@H]1NC(=O)[C@H](Cc1c[nH]cn1)NC(=O)[C@H](CC(C)C)NC(=O)[C@H](Cc1ccccc1)NC(=O)[C@H]1CNC[C@@H]1NC(=O)[C@H](CCCNC(=N)N)NC(=O)[C@H](CCCNC(=N)N)NC(=O)[C@H](CCCNC(=N)N)NC(=O)[C@H]1CCC[C@@H]1NC(=O)[C@H](CC(=O)O)NC(=O)[C@H](CCC(N)=O)NC(=O)[C@@H](NC(=O)[C@H]1CCC[C@@H]1NC(=O)[C@H](CCCCN)NC(=O)CNC(=O)[C@H](CCCCN)NC(=O)[C@H](CC(=O)O)NC(=O)[C@H](Cc1c[nH]cn1)NC(=O)[C@H](CC(C)C)NC(=O)[C@H](CC(C)C)NC(=O)[C@H](CCC(N)=O)NC(=O)[C@H](Cc1c[nH]cn1)NC(=O)[C@H](CCC(=O)O)NC(=O)[C@H](CO)NC(=O)[C@@H](NC(=O)[C@H](C)N)C(C)C)[C@@H](C)CC)C(=O)N[C@@H](C)C(=O)N[C@H]1CCC[C@@H]1C(=O)N[C@H](C(=O)N[C@@H](Cc1c[nH]cn1)C(=O)N[C@H](C(=O)N[C@H]1CCC[C@@H]1C(N)=O)[C@@H](C)O)[C@@H](C)CC`, the EC50 (usually the concentration giving half of the maximal effect) was 0.65 nM.

The record behind these values is BindingDB's records for doi:10.1021/acs.jmedchem.7b00876 (University of Wisconsin-Madison, 2017).
